The values that follow come from patent publication US7943181B2, “Natural immunostimulant compositions, methods for obtaining the same and pharmaceutical formulations thereof” (Himalaya Global Holdings Ltd., priority 2004, dated 2011).

The target in assay [1] is snake venom Phosphodiesterase type I (Crotalus adamanteus, UniProt J3SEZ3). As to conditions: cited from earlier work.
In another assay the test system is RAW-264.7 Cells. Put plainly: Nitric oxide (NO) estimation, nitrite released from mouse macrophage cells. It is filed as cell-based. Conditions: Table 5, 48 h, LPS 1 μg/ml, control 800 ± 50. The procedure: Macrophages are part of immune system (innate immunity) which phagocytose the intruder organism and kill them by release of toxic Nitric Oxide (NO). In this experiment, the ability of the plant extract to stimulate the macrophages for NO production was measured as nitrite released from mouse macrophage cells. Mouse macrophage cells were plated in 96-well culture plates (1×10^5 cells/well) and incubated for 24 h at 37° C. in a humidified atmosphere containing 5% CO2/95% air. The spent media from each well was aspirated and replenished with fresh media and further incubated for 48 h with desired concentration of extract in presence or in absence of Lipopolysaccharide (LPS 1 μg/ml). NO production in the supernatant was measured by micro plate assay. Cell supernatant was mixed with an equal volume of the Griess reagent (1% sulfanilaminde and 0.1% N-[napthyl]ethylenediamine dihydrochloride in 2.5% H3PO4) at room temperature for 10 min. The absorbance at 540 nm was determined in a microtiter plate reader (Anthos HT II). NO estimation was carried out using standard curve plotted against known quantity of […]. Results presented are in μM concentration obtained from mean OD of triplicate wells of each group.

Assay [2] relates to ACD sensitized L929 cells. Put plainly: Assay for immunostimulatory effects: proinflammatory cytokine induced cell death after transfer of RAW 264.7 supernatant. It is filed as cell-based, mouse. As to conditions: Table 4, extract 200 μg/ml, LPS 1 μg/ml, control 0. Here is the method: The extracts […] to […] and SR-1 to SR-11 were subjected to biological screening in Mouse macrophage (RAW 264.7) cell and fibroblast (L929) cells for in vitro immunomodulatory activity. Following the treatment with sub toxic levels of the extract the percent death in the ACD sensitised cells was taken as end point.
The stock solution of the plant extract was prepared in specified solvent at a concentration of 50 mg/ml. The working concentration of 10 mg/ml solution was prepared in incomplete Dulbecco's Modified Eagle's Medium (DMEM) and filter sterilized for further use in the assays.
Mouse macrophage (RAW 264.7) cells and fibroblast (L929) cells were used in the in vitro assays. These were maintained in DMEM supplemented with 10% fetal calf serum (FCS) at 37° C. in a humidified atmosphere containing 5% CO2/95% air. The cells were sub cultured upon confluence.
Mouse macrophage (RAW 264.7) cells were plated at a cell density of 1×10^5 cells/well in a 96 well micro titer plate. After 24 h of incubation they were treated with filtered extract (200 μg/ml), Lipopolysaccharide (1 μg/ml) or media alone and incubated for a further period of 18-24 h. The supernatants as such or diluted ( 1/10th or 1/20th) were transferred to pre-incubated (24 h) L929 cells ([…]). […]

The subject of assay [3] is IL-6 production in RAW-264.7 Cells. Kind of assay: Estimation of IL-6 production by ELISA in macrophage supernatant. It is filed as cell-based, mouse. As to conditions: Table 7; RAW 264.7 supernatant; control 542 ± 4. The procedure:
(§1) This experiment was carried out to know whether the plant extract has stimulatory effects on the production of proinflammatory cytokines. Mouse macrophage cells, RAW 264.7 were cultured for 48 hours in the presence or in the absence of filtered plant extract. LPS was used as stimulant for proinflammatory cytokines TNF-∝ and IL-6. Supernatant of these samples were harvested immediately for estimations of TNF-∝ and IL-6 by an ELISA as per the manufacturer's protocol and recorded the results as concentrations in pg/ml.

The subject of assay [4] is TNF-α production in RAW-264.7 Cells. Kind of assay: Estimation of TNF-α production by ELISA in macrophage supernatant. As to conditions: Table 6; RAW 264.7 supernatant; control 1662.00 ± 3.50. It is filed as cell-based, mouse. Here is the method: as §1
Assay [5] has as its system SRBC specific immunoglobulin. Kind of assay: Humoral response: haemagglutination antibody titre against SRBC in normal and immunocompromised rats. It is filed as in vivo. Conditions: Wistar rats, IMS-6 200 mg/Kg orally 14 days, SRBC ip day 10, Cyclophosphamide 400 mg/Kg ip day 12, serum day 14; control 3.278 ± 0.181.
The conditions of assay [6]: J. Chem. Soc., Pakistan, 1982; cited from earlier work.
The conditions of assay [7]: Indian J. Chem, 1989; cited from earlier work.

Like-named read-outs stand apart in the source and are kept apart here.

Sequence of snake venom Phosphodiesterase type I (J3SEZ3 24-851 limits assumed): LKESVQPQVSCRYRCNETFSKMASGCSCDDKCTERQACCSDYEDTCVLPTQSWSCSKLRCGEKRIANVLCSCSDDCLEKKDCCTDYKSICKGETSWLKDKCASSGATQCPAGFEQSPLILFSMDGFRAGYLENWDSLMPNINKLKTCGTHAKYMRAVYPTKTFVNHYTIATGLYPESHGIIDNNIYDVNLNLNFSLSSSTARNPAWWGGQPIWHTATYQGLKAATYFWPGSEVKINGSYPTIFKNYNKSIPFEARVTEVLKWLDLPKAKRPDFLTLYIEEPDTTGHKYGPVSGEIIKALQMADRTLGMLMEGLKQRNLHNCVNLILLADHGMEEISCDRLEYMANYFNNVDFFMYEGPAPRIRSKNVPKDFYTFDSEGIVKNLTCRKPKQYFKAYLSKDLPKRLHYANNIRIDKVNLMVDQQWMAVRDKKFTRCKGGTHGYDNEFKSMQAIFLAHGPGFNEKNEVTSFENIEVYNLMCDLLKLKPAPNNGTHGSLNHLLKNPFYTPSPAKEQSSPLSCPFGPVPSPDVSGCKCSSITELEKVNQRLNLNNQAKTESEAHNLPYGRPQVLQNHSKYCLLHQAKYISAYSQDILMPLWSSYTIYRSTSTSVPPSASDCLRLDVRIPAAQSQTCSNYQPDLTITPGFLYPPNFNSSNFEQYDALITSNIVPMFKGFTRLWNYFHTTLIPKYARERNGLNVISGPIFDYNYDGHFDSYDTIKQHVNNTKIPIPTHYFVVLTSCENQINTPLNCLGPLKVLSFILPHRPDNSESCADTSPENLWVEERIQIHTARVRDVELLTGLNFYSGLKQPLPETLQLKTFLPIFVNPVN

Consider benzoylsalireposide, for which the “inhibitory activity against snake venom Phosphodiesterase type I” value in assay [1] is “inhibitory activity”.
Turning to Lipopolysaccharide [LPS], the “NO Levels” value in the assay on RAW-264.7 Cells is 2862.50 ± 87.50 µM. Besides, the “Proinflammatory Cytokine induced Cell Death (%)” value in assay [2] is listed as 79.0%. Further, in assay [3], the “IL-6 Conc.” value was 11187 ± 214 pg/mL. For the same compound, in assay [4], the “TNF ∝ Levels” value was 3432.00 ± 140.50 pg/mL and the “TNF ∝ Levels (pg/ml)” value was 3432.00 ± 140.50^• pg/ml.
As for `O=P1(N(CCCl)CCCl)NCCCO1` (stereo not shown) [Cyclophosphamide], the Antibody titre in assay [5] is 0.444 ± 0.141.
In the case of `C[C@H]1N[C@@H](CCCCCCCCCCC2=C[C@@H](CCCCCCCCCC[C@H]3CC[C@@H](O)[C@@H](C)N3)[C@@H]3CCCN3C2)CC[C@H]1O` [Juliprosopine], in assay [6], the antibacterial activity result is “exhibiting antibacterial activity”.
With `OC[C@H]1O[C@@H](Oc2cc(O)c3c(c2)O[C@H](c2ccc(O)cc2)[C@H](O)C3)[C@H](O)[C@@H](O)[C@@H]1O` [Symposide], the antifibrinolytic activity entry in assay [7] is given as “showed antifibrinolytic activity”.
`O=C(OCc1cc(O)ccc1O[C@@H]1O[C@H](CO)[C@@H](O)[C@H](O)[C@H]1O)c1ccccc1` [salireposide]: in assay [1] (Ahmad et al. Phytochemistry, 2003), the “inhibitory activity against snake venom Phosphodiesterase type I” value was “inhibitory activity”.
